Entries after “also recorded” stand apart in the source; their conditions may differ. Read-outs that look alike come from different tables or passages of the source. Marks after values point to notes of the source that are not given here. No end group written: not given here.
Tests used:
[1] = target: T1, SEP (soluble secreted endopeptidase) (Mus musculus, UniProt Q9JLI3); conditions: 10 μg SEP; 0.5 μM substrate; 12 h, 37° C.; cited from earlier work
T1 sequence (Q9JLI3 63-765 limits assumed): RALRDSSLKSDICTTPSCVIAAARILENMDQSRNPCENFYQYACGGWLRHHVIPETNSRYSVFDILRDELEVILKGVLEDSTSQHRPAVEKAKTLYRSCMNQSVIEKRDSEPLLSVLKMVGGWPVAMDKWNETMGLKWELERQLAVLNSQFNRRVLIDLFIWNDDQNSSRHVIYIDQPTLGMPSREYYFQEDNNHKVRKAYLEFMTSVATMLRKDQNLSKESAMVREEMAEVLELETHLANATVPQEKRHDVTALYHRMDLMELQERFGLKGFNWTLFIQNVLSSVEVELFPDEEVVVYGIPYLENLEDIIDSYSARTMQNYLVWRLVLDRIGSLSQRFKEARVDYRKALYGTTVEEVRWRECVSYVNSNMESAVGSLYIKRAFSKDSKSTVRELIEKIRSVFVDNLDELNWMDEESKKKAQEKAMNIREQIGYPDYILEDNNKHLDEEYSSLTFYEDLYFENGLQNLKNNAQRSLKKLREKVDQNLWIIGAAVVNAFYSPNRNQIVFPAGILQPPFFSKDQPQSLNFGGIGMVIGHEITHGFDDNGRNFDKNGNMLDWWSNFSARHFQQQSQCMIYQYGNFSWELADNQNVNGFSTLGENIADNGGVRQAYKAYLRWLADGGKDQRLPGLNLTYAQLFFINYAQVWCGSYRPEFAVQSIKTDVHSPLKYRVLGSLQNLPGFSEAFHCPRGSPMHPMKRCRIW

IGS5 polypeptide = target: T2, IGS5 polypeptide (Homo sapiens, UniProt Q495T6); assay: Hydrolysis of vasoactive peptides by IGS5 polypeptides; type: biochemical; conditions: 0.5 μM substrate, 2 h, 37° C.
T2 construct: Enzyme: IGS-5 (sol hu)(his)6; or: His6-tagged IGS5 ectodomain;; made in house; host or cells: Sf9 insect cells, recombinant baculovirus IGBV73, purified from culture supernatant
T2 sequence (Q495T6 49-779 limits assumed): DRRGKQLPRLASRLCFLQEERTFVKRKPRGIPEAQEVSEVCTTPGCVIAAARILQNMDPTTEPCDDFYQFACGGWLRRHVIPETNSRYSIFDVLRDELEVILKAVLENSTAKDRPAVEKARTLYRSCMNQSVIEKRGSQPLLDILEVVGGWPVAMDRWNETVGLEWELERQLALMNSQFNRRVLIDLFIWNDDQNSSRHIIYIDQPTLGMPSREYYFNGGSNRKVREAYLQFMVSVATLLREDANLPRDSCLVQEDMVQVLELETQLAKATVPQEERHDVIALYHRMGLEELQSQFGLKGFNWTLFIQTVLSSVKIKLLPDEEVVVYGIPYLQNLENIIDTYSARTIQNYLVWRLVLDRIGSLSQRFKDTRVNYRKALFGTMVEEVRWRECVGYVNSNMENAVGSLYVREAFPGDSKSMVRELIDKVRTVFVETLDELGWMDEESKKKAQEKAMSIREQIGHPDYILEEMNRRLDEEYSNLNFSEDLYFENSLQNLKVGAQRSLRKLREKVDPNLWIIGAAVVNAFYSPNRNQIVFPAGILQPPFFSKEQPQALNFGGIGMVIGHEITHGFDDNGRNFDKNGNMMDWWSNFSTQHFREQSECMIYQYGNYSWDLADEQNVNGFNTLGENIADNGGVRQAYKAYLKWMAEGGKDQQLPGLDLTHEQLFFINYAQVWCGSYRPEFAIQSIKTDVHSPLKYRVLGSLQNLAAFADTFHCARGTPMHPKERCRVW
Protocol: (§1) The enzymatic activity of IGS5 polypeptides of the invention was tested with regard to the metabolism of biologically active peptides. In particular it was tested whether these IGS5 polypeptides may act on a variety of vasoactive peptides known in the state of the art e.g. such like atrial natriuretic peptide (ANP), bradykinin, big-endothelin (big-ET-1), endothelin (ET-1), substance P and angiotensin-1. In the context of the present invention in particular it was tested whether the IGS5 ectodomain, which is a novel human metalloprotease, hydrolyzes said vasoactive peptides. For comparison the assay was also performed for a known member of the metalloprotease family which was described earlier as soluble secreted endopeptidase (SEP) by Emoto et al. (J. Biol. Chem., Vol. 274 (1999): pp. 32469-32477). Furthermore, it was tested whether the activity of IGS5 to convert a big-ET-1 analog (the so-called 17 aa big-ET-1) may be inhibited by reference compounds that are used to determine the inhibition properties with regard to enzymes having ECE and/or NEP-characteristics.

[2] = target: T3, His6-tagged IGS5 ectodomain (Homo sapiens, UniProt Q495T6); assay: IGS5 enzyme inhibition assay (fluorescence-quenched big-ET-1 analog, HPLC); type: biochemical; conditions: for IC50: conversion of labeled fluorescent big-ET-1 analog
T3 construct: Enzyme: IGS-5 (sol hu)(his)6; or: His6-tagged IGS5 ectodomain;; made in house; host or cells: Sf9 insect cells, recombinant baculovirus IGBV73, purified from culture supernatant
T3 sequence (Q495T6 49-779 limits assumed): T2 sequence (Q495T6 49-779 limits assumed)
Protocol: as §1
Enzyme: IGS-5 (sol hu)(his)6; or: His6-tagged IGS5 ectodomain;
stock solution: 53 μg/ml in 20 mM HEPES pH 7.2, 5% glycerol, 0.005% Tween20, 100 mM NaCl, purity >99%; storage at 4° C.
working solution: stock solution diluted with assay buffer to 10 μg/ml.
Substrate: Mca-Asp-Ile-Ala-Trp-Phe-Dpa-[…]COOH;
Fluorescence-quenched big-ET-1 analog;
Assay buffer: 100 mM Tris pH 7.0, 250 mM NaCl.
All test compounds were dissolved in DMSO at 10 mM and were further diluted with assay buffer.
A quantity of 70 μl of the assay buffer, of 10 μl enzyme working solution and of 10 μl test compound solution were mixed in an Eppendorf vial and preincubated at 37° C. for 15 minutes. Then, 10 μl substrate stock solution was added and the reaction mixture was incubated at 37° C. for 60 minutes to allow for enzymatic hydrolysis. Subsequently the enzymatic reaction was terminated by heating at 95° C. for 5 minutes. After centrifugation (Heraeus Biofuge B, 3 min) the supernatant was subjected to HPLC analysis.
In order to separate the remaining substrate from the cleavage products reversed phase HPLC technique was used with a CC 125/4 Nucleosil 300/5 C18 RP column and a CC 8/4 Nucleosil 100/5 C18 precolumn (commercially available from Macherey-Nagel, Düren, Germany). Thus, 60 μl of the reaction samples obtained in Example 7b were injected into the HPLC, and the column was eluted at a flow rate of 1 ml/min by applying the following gradient and solutions: […]
The increasing fluorescence signal of the HPLC-peak of the peptide with the unquenched Mca-fluorophor after hydrolysis was taken as the basis for any calculation.
This signal was compared for the samples with and without inhibitor and % inhibition was calculated on basis of the respective peak areas.
% inhib=100*(1−Ainhib/Acontrol)
All samples were run in duplicate and mean values were used.
(§2) Furthermore, the potency of metalloprotease inhibitor compounds and reference compounds to suppress the conversion of big-ET to ET-1 was examined as described in this example 7, using a labeled fluorescent big-ET-1 analog. The procedures applied in the enzyme assays are described above in the examples 4 with regard to IGS5, in example 5 with regard to NEP, and in example 6 with regard to ECE.

[3] = target: Neutral endopeptidase (E.C. 3.4.24.11) (Sus scrofa, UniProt A0A4X1SQE6); assay: NEP enzyme inhibition assay (methionin-enkephalin substrate, HPLC); type: biochemical, pig
Protocol: Neutral endopeptidase (E.C. 3.4.24.11) was prepared from pig kidney cortex according to the method of Gee et al. (Biochem J 1985 May 15;228(1):119-26) and purified as reported by Relton et al. (Biochem J 1983 Dec. 1;215(3):519-23). For the enzyme inhibition assay 10 ng of the purified enzyme, 20 μM substrate (methionin-enkephalin) and various inhibitor concentrations were used. The assay buffer was 50 mM Tris-(hydroxymethyl)-aminomethan/HCl pH 7.4, the total assay volume was 100 μl. After a preincubation period of 5 min of enzyme and inhibitor, the substrate was added and subsequently a second incubation phase for enzyme induced substrate hydrolysis at 37° C. for 30 min was initiated. The enzymatic reaction was stopped by heating at 95° C. for 5 min. After centrifugation the supernatant was subjected to HPLC. The products of enzymatic substrate hydrolysis were separated from the native substrate by HPLC technique and the inhibitor potency calculated by comparing the peak areas of the products with the peak area of native substrate for both, the samples with and without inhibitor (control). Blanks without enzyme, controls without inhibitor, samples with inhibitor solvent instead of the inhibitor and samples with a standard inhibitor were added to each assay run.
as §2

[4] = test system: patients with congestive heart failure; assay: Open, baseline controlled pilot trial in patients with congestive heart failure; type: in vivo, human; conditions: following compound Ia-2 administration; p<0.001
Protocol: To proof the concept of clinical efficacy and safety of compound Ia-2 in man, 6 clinical trials were conducted in healthy volunteers and 2 proof of concept trials were conducted in patients: One randomized, placebo-controlled double-blind trial in patients with hypertension (N=191) and one open, baseline controlled pilot trial in patients with congestive heart failure (N=29). […] In the Intent-to-treat patient population (ITT), office diastolic blood pressure versus placebo decreased by −6.9 mmHg (last value under treatment; p<0.001) and office systolic blood pressure versus placebo decreased by −9.2 mmHg (last value under treatment; p=0.003) at the highest dose investigated (200 mg bid).

Chain of Neutral endopeptidase (E.C. 3.4.24.11) (A0A4X1SQE6 entry or part of it): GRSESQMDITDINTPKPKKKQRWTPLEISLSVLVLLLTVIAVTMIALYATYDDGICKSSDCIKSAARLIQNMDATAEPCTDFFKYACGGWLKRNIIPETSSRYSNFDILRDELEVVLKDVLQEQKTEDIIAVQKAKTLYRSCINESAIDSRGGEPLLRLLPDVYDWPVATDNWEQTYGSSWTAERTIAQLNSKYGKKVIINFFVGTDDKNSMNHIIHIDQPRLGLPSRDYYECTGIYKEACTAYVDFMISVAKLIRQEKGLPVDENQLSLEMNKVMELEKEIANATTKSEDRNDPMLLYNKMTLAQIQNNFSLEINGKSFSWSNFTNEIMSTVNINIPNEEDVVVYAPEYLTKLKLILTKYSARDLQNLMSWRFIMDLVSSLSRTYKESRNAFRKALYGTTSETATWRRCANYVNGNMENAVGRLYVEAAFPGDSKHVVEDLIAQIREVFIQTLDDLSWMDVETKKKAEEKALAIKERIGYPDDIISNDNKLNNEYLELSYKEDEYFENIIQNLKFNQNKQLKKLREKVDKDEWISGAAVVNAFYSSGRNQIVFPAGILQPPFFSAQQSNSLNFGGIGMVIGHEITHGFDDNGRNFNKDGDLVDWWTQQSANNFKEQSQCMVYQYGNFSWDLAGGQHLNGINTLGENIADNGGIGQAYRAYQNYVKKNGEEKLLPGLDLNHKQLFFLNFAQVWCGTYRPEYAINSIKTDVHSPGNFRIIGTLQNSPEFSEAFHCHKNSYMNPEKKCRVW

% Hydrolysis by IGS5 Polypeptide (IGS5 polypeptide; 100 μg IGS5 polypeptide) | Compound | % Hydrolysis by SEP (Emoto et al.) [1] | other results
15*** % | Angiotensin 1: vasoactive peptide tested as substrate (DRVYIHPFHL; Angiotensin-1; UniProt P01019 25-34, looked up) | >95% | 
41% | Mca-Asp-Ile-Ala-Trp-Phe-Dpa-Thr-Pro-Glu-His-Val-Val-Pro-Tyr-Gly-Leu-Gly-COOH [17 aa big-ET-1] |  | 
100% | Substance P: vasoactive peptide tested as substrate | >95% | 
 | tert-Butyl (3S)-3-(1-benzylethylphosphonomethyl-cyclopentane-1-carbonylamino)-2,3,4,5-tetrahydro-2-oxo-1H-1-benzazepine-1-acetate [compound Ib-8] |  | IC50 [2]: 2.9 nM
 | CC(C)C[C@H](NP(=O)(O)O[C@@H]1O[C@@H](C)[C@H](O)[C@@H](O)[C@H]1O)C(=O)N[C@@H](Cc1c[nH]c2ccccc12)C(=O)O [Phosphoramidon] |  | IC50 [3]: 2 nM; inhibition of IGS5 activity (in words) [2]: inhibits IGS5 with high potency; IC50 [2]: 18 nM
 | Cc1nn(-c2ccccc2)c(NC(=O)NS(=O)(=O)c2ccc(Cl)cc2)c1C#N.[Na] [monosodium salt] |  | IC50 ([3]; 20 μM methionin-enkephalin, read-out: NEP IC50): > 1000 nM; IC50 [2]: > 10000 nM
 | Cc1nn(-c2ccccc2)c(NC(=O)NS(=O)(=O)c2ccc(Cl)cc2)c1C#N.[Na] |  | inhibition of IGS5 activity (in words) ([2]; monosodium salt): no inhibition of IGS5; also recorded: do not affect the activity of IGS5
5% | CC[C@H](C)[C@@H]1NC(=O)[C@H](CCCNC(=N)N)NC(=O)[C@H](CC(=O)O)NC(=O)[C@H](CCSC)NC(=O)[C@H](CCCNC(=N)N)NC(=O)CNC(=O)CNC(=O)[C@H](Cc2ccccc2)NC(=O)[C@@H](NC(=O)[C@H](CO)NC(=O)[C@H](CO)NC(=O)[C@H](CCCNC(=N)N)NC(=O)[C@H](CCCNC(=N)N)NC(=O)[C@H](CC(C)C)NC(=O)[C@@H](N)CO)CSSC[C@@H](C(=O)N[C@@H](CC(N)=O)C(=O)N[C@@H](CO)C(=O)N[C@@H](Cc2ccccc2)C(=O)N[C@@H](CCCNC(=N)N)C(=O)N[C@@H](Cc2ccc(O)cc2)C(=O)O)NC(=O)CNC(=O)[C@H](CC(C)C)NC(=O)CNC(=O)[C@H](CO)NC(=O)[C@H](CCC(N)=O)NC(=O)[C@H](C)NC(=O)CNC1=O [ANP] | >95% | % Hydrolysis by IGS5 Polypeptide (IGS5 polypeptide; 500 μg IGS5 polypeptide): 80%
 | O=C(O)CN1C(=O)[C@@H](NC(=O)C2(C[C@@H](CCc3ccccc3)C(=O)O)CCCC2)CCc2ccccc21 [compound Ia-1, (3S,2′R)-3-{1-[2′-carboxy-4′-phenylbutyl]-cyclopentane-1-carbonylamino}-2,3,4,5-tetrahydro-2-oxo-1H-1-benzazepine-1-acetic acid] |  | correlation between log plasma concentrations of compound Ia-1 and plasma levels of big-ET [4]: significant positive correlation

Compound | % Hydrolysis by IGS5 Polypeptide (IGS5 polypeptide; 100 μg IGS5 polypeptide) | % Hydrolysis by SEP (Emoto et al.) [1] | other results
RPPGFSPFR [Bradykinin] | 100% |  | % Hydrolysis by IGS5 Polypeptide (IGS5 polypeptide; 10 μg IGS5 polypeptide): 62%
CC[C@H](C)[C@H](NC(=O)[C@H](CC(=O)O)NC(=O)[C@H](CC(C)C)NC(=O)[C@H](Cc1c[nH]cn1)NC(=O)[C@@H]1CSSC[C@H](N)C(=O)N[C@@H](CO)C(=O)N[C@H]2CSSC[C@H](NC(=O)[C@H](CCC(=O)O)NC(=O)[C@H](CCCCN)NC(=O)[C@H](CC(=O)O)NC(=O)[C@H](CCSC)NC(=O)[C@H](CC(C)C)NC(=O)[C@H](CO)NC(=O)[C@H](CO)NC2=O)C(=O)N[C@@H](C(C)C)C(=O)N[C@@H](Cc2ccc(O)cc2)C(=O)N[C@@H](Cc2ccccc2)C(=O)N1)C(=O)N[C@H](C(=O)N[C@@H](Cc1c[nH]c2ccccc12)C(=O)O)[C@@H](C)CC [ET-1] | <30% | 92% | 

Reference: patent US20040162345A1, “Compounds with NEP/MP-inhibitory activity and uses thereof” (Solvay Pharmaceuticals GmbH, priority 2001, published 2004)
